Laboratory results: patent US20250388565A1, “ESTROGEN RECEPTOR ALPHA DEGRADERS AND METHODS OF USE THEREOF” (Relay Therapeutics, Inc., priority 2022, published 2025)

Molecular target: T1, ERα protein (HiBiT-tagged) in ESR1_HiBiT KI MCF7 cells (Homo sapiens, UniProt P03372)
T1 sequence (P03372 1-595): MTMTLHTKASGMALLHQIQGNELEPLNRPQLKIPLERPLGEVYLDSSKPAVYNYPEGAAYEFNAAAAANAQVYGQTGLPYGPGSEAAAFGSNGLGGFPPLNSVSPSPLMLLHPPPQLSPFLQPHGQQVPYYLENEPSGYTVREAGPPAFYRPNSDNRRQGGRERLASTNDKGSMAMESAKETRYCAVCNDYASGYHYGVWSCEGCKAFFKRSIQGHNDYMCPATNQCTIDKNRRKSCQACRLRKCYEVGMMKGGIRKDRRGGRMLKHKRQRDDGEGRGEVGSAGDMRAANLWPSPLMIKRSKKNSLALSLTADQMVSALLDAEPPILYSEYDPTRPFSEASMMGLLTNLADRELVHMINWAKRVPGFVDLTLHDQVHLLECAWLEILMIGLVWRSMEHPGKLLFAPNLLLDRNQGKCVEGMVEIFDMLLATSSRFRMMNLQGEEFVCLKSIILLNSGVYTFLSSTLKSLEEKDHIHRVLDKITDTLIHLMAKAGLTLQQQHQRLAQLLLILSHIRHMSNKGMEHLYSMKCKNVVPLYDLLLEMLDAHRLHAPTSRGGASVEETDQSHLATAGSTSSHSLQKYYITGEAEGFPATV
Assay: Nano Glo HiBiT Lytic Degradation Assay
Assay type: cell-based
Conditions: 6 hours with compound, 14-point dose response 1:3, bell-shape curve fit, half-maximal effect of first Hill model, read-out: MCF7 ESR1 HiBiT - (DC50)
Outline: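 Lytic Nano-Glo HiBiT luminescence quantified ERα remaining after a 6 h, 37° C compound exposure of MCF7 cells carrying endogenous HiBiT-tagged ESR1. Dosing used 14 threefold dilutions from a 10 mM DMSO stock (0.1% DMSO final), run in duplicate. Signals were corrected for cell-free background and expressed relative to DMSO, and DC50 came from a bell-shaped curve fit (first Hill model half-maximum).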

Row | Structure (SMILES) | DC50 [nM]
1 | [2H]c1c([2H])c([2H])c([C@@H]2CC(F)(F)c3cc(O)ccc3[C@@H]2c2ccc(N3CCC(CN4CCN(c5ccc6c(c5)CN([C@H]5CCC(=O)NC5=O)C6=O)CC4)CC3)cc2)c([2H])c1[2H] [Compound I-336, (S)-3-(5-(4-((1-(4-((1S,2R)-4,4-difluoro-6-hydroxy-2-(phenyl-d5)-1,2,3,4-tetrahydronaphthalen-1-yl)phenyl)piperidin-4-yl)methyl)piperazin-1-yl)-1-oxoisoindolin-2-yl)piperidine-2,6-dione] | 15
2 | O=C1CC[C@H](N2Cc3cc(N4CCN(CC5CCN(c6ccc([C@@H]7c8ccc(O)cc8CO[C@@H]7c7ccccc7F)cc6)CC5)CC4)ccc3C2=O)C(=O)N1 [Compound I-347, (S)-3-(5-(4-((1-(4-((3S,4R)-3-(2-fluorophenyl)-7-hydroxyisochroman-4-yl)phenyl)piperidin-4-yl)methyl)piperazin-1-yl)-1-oxoisoindolin-2-yl)piperidine-2,6-dione] | 0.18
3 | O=C1CC[C@H](N2Cc3cc(N4CCN(CC5CCN(c6ccc([C@@H]7c8ccc(O)cc8CC[C@@H]7c7ccccc7)cc6F)CC5)CC4)ccc3C2=O)C(=O)N1 [II-82] | 0.84
4 | Cn1c(=O)n([C@H]2CCC(=O)NC2=O)c2ccc(N3CCN(CC4CCN(c5ccc([C@@H]6c7ccc(O)cc7CC[C@@H]6c6ccccc6)cc5)CC4)CC3)cc21 (single isomer, unassigned) [Compound I-275] | 0.25
5 | Cc1ccc([C@@H]2CC(F)(F)c3cc(O)ccc3[C@@H]2c2ccc(N3CCC(CN4CCN(c5ccc6c(c5)CN(C5CCC(=O)NC5=O)C6=O)CC4)CC3)cc2)cc1 (stereo in doubt) [Compound I-321, (R)-3-(5-(4-((1-(4-((1S,2R)-4,4-difluoro-6-hydroxy-2-(p-tolyl)-1,2,3,4-tetrahydronaphthalen-1-yl)phenyl)piperidin-4-yl)methyl)piperazin-1-yl)-1-oxoisoindolin-2-yl)piperidine-2,6-dione] | 0.44
6 | C[C@]1(C2CCCCC2)OCc2cc(O)ccc2[C@@H]1c1ccc(N2CCC(CN3CCN(c4ccc5c(c4)CN([C@H]4CCC(=O)NC4=O)C5=O)CC3)CC2)cc1 [Compound I-257, (S)-3-(5-(4-((1-(4-((3R,4S)-3-cyclohexyl-7-hydroxy-3-methylisochroman-4-yl)phenyl)piperidin-4-yl)methyl)piperazin-1-yl)-1-oxoisoindolin-2-yl)piperidine-2,6-dione] | 3300
7 | O=C1CC[C@H](N2Cc3cc(N4CCN(CC5CCN(c6ccc([C@H]7c8ccc(O)cc8CO[C@H]7CC7CCCC7)cc6)CC5)CC4)ccc3C2=O)C(=O)N1 (single isomer, unassigned) [Compound I-233] | 31
8 | O=C1CC[C@H](N2Cc3cc(N4CCN(CC5CCN(c6ccc([C@@H]7c8ccc(O)cc8C(F)(F)C[C@@H]7C7CCCCC7)cc6)CC5)CC4)ccc3C2=O)C(=O)N1 [Compound I-99, (S)-3-(5-(4-((1-(4-((1R,2R)-2-cyclohexyl-4,4-difluoro-6-hydroxy-1,2,3,4-tetrahydronaphthalen-1-yl)phenyl)piperidin-4-yl)methyl)piperazin-1-yl)-1-oxoisoindolin-2-yl)piperidine-2,6-dione] | 0.67
9 | O=C1CCC(N2Cc3cc([C@@H]4CCN(CC5CCN(c6ccc([C@@H]7c8ccc(O)cc8CC[C@@H]7c7ccccc7)cc6)CC5)C[C@H]4O)ccc3C2=O)C(=O)N1 (single isomer, unassigned) [II-106] | 2.82
10 | Cc1cc(F)c([C@@H]2CC(F)(F)c3cc(O)ccc3[C@@H]2c2ccc(N3CCC(CN4CCN(c5ccc6c(c5)CN([C@H]5CCC(=O)NC5=O)C6=O)CC4)CC3)cc2)cc1F (single isomer, unassigned) [Compound I-325] | 11
11 | CC(C1CCN(c2ccc([C@@H]3c4ccc(O)cc4CC[C@@H]3c3ccccc3)cc2)CC1)N1CCN(c2ccc3c(c2)CN([C@@H]2CCC(=O)NC2=O)C3=O)CC1 (single isomer, unassigned) [II-67] | 47
12 | O=C1CC[C@H](N2Cc3cc(N4CCN(CC5CCN(c6ccc([C@H]7c8ccc(O)cc8CO[C@H]7c7ccc(C(F)(F)F)cc7)cc6)CC5)CC4)ccc3C2=O)C(=O)N1 (single isomer, unassigned) [Compound I-56] | 7.75
13 | C[C@@]1(C2CCCCC2)CCc2cc(O)ccc2[C@H]1c1ccc(N2CCC(CN3CCN(c4ccc5c(c4)CN([C@H]4CCC(=O)NC4=O)C5=O)CC3)CC2)cc1 [Compound I-240, (S)-3-(5-(4-((1-(4-((1R,2S)-2-cyclohexyl-6-hydroxy-2-methyl-1,2,3,4-tetrahydronaphthalen-1-yl)phenyl)piperidin-4-yl)methyl)piperazin-1-yl)-1-oxoisoindolin-2-yl)piperidine-2,6-dione] | 3
14 | Cn1nc(C2CCC(=O)NC2=O)c2ccc(N3CCN(CC4CCN(c5ccc([C@@H]6c7ccc(O)cc7C(F)(F)C[C@@H]6c6ccccc6)cc5)CC4)CC3)cc21 (single isomer, unassigned) [Compound I-298] | 1
15 | Cc1ccc([C@H]2CCc3cc(O)ccc3[C@H]2c2ccc(N3CCC(CN4CCN(c5ccc6c(c5)CN([C@H]5CCC(=O)NC5=O)C6=O)CC4)CC3)cc2)cc1 (single isomer, unassigned) [II-36] | 0.93
16 | O=C1CC[C@H](N2Cc3cc(N4CCN(CC5CCN(c6ccc([C@H]7c8ccc(O)cc8CC[C@H]7c7cccc8c7CCC8)cc6)CC5)CC4)ccc3C2=O)C(=O)N1 (single isomer, unassigned) [Compound I-411] | 1
17 | O=C1CCC(c2ccc(C3CC4(C3)CN(CC3CCN(c5ccc([C@@H]6c7ccc(O)cc7CC[C@@H]6c6ccccc6)cc5)CC3)C4)cc2)C(=O)N1 (stereo partly drawn) [Compound I-182, 3-(4-(2-((1-(4-((1R,2S)-6-hydroxy-2-phenyl-1,2,3,4-tetrahydronaphthalen-1-yl)phenyl)piperidin-4-yl)methyl)-2-azaspiro[3.3]heptan-6-yl)phenyl)piperidine-2,6-dione] | 2
18 | O=C1CC[C@H](N2Cc3cc(N4CCN(CC5CCN(c6ccc([C@H]7c8ccc(O)cc8C(F)(F)C[C@H]7CC7CCCC7)cc6)CC5)CC4)ccc3C2=O)C(=O)N1 [Compound I-229, (3S)-3-[5-[4-[[1-[4-[(1S,2R)-2-(cyclopentylmethyl)-4,4-difluoro-6-hydroxy-tetralin-1-yl]phenyl]-4-piperidyl]methyl]piperazin-1-yl]-1-oxo-isoindolin-2-yl]piperidine-2,6-dione] | ≥ 10000
19 | COc1cc(N2CCC(CN3CCN(c4ccc5c(c4)CN([C@H]4CCC(=O)NC4=O)C5=O)CC3)CC2)ccc1[C@@H]1c2ccc(O)cc2CC[C@@H]1c1ccccc1 [Compound I-144, (S)-3-(5-(4-((1-(4-((1S,2S)-6-hydroxy-2-phenyl-1,2,3,4-tetrahydronaphthalen-1-yl)-3-methoxyphenyl)piperidin-4-yl)methyl)piperazin-1-yl)-1-oxoisoindolin-2-yl)piperidine-2,6-dione] | 0.37
20 | O=C1CC[C@H](N2Cc3cc(N4CCN(CC5CCN(c6ccc([C@H]7c8ccc(O)cc8CC[C@H]7c7ccc(F)cc7)cc6)CC5)CC4)ccc3C2=O)C(=O)N1 [II-101] | ≥ 10000
21 | C[C@@H]1Cc2cc(O)ccc2[C@H](c2ccc(N3CCC(CN4CCN(c5ccc6c(c5)CN([C@H]5CCC(=O)NC5=O)C6=O)CC4)CC3)cc2)[C@@H]1c1ccccc1 [Compound I-333, (S)-3-(5-(4-((1-(4-((1S,2R,3R)-6-hydroxy-3-methyl-2-phenyl-1,2,3,4-tetrahydronaphthalen-1-yl)phenyl)piperidin-4-yl)methyl)piperazin-1-yl)-1-oxoisoindolin-2-yl)piperidine-2,6-dione] | 21
